The record followed here is patent publication US20260137697A1, “THIAZOLO[5,4-D]PYRIMIDINE COMPOUNDS, COMPOSITIONS COMPRISING THEM AND USES THEREOF” (University de Montreal, priority 2022, published 2026).

Experiment [1] addresses T1, BRAF (Homo sapiens, UniProt P15056).
T1 construct: GST; purchased Millipore Sigma B4062-10UG
The experiment is described as follows: BRAF kinase activity assay (ADP-Glo). In kind it is biochemical. The following applies: 10 μM ATP, kinase-dead MEK1 substrate. Put shortly:
(§1)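 GST-tagged kinase (0.375 nM) with 75 nM kinase-dead MEK1 and 10 μM ATP in HEPES pH 7.5 buffer, 2 h at 30° C, nine concentrations 100–0.01 nM, 0.05% DMSO. ADP-Glo luminescence; % inhibition vs DMSO and substrate-only blanks, IC50 by four-parameter fit.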
(ADP-Glo turns the ADP formed in a reaction into a luminescent signal.)

In experiment [2] the test system is pERK, HCT116 cells. Kind of experiment: Phospho-ERK inhibition, AlphaLISA p-ERK 1/2, HCT-116. Type of experiment: cell-based, human. As to conditions: for pIC50: HCT116 cells (KRAS G13D), 1 h treatment; for HCT116 pERK (Ymin %): lowest % inhibition value of the pERK IC50 curve, above −20% = no paradoxical induction. In outline:
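Cells in RPMI-1640 with 5% FBS plated overnight, then treated 1 h with ten-point dilutions (10 μM to 0.33 nM, 0.5% DMSO). Lysate p-ERK1/2 (Thr202/Tyr204) read by AlphaLISA SureFire Ultra; % inhibition normalised to DMSO and 1 μM trametinib background, IC50 by four-parameter fit.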
For orientation: Alpha assays give light when donor and acceptor beads are brought close together.

Experiment [3] concerns the target T2, CRAF (Homo sapiens, UniProt P04049).
T2 construct: fused on or other part: GST tag (N-terminal according to the vendor's product)
The experiment is described as follows: CRAF kinase activity assay (ADP-Glo). Type of experiment: biochemical. As to conditions: 10 μM ATP, kinase-dead MEK1 substrate. In outline: as §1

SMILES strings stand for the structures. pIC50: −log10 of the molar value.

T2 sequence (P04049 whole entry Y340E/Y341E, form open, the tested form may be a part): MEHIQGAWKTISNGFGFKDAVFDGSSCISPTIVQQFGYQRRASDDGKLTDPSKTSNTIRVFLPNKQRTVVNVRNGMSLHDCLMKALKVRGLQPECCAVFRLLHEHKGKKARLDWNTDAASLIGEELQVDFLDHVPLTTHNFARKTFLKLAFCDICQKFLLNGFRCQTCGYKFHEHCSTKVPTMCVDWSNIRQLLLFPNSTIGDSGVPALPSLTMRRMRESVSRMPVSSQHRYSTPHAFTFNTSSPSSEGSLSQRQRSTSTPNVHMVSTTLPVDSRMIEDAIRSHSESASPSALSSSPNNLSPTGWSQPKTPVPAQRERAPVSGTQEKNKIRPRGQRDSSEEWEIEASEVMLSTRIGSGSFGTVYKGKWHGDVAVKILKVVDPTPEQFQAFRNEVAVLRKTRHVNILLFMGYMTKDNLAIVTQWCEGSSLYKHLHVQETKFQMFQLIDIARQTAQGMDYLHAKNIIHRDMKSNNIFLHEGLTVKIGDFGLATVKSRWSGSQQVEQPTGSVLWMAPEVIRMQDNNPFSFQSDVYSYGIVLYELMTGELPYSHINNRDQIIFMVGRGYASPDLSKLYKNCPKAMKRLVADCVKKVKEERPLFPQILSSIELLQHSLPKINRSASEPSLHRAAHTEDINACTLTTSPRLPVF
T1 sequence (P15056 whole entry): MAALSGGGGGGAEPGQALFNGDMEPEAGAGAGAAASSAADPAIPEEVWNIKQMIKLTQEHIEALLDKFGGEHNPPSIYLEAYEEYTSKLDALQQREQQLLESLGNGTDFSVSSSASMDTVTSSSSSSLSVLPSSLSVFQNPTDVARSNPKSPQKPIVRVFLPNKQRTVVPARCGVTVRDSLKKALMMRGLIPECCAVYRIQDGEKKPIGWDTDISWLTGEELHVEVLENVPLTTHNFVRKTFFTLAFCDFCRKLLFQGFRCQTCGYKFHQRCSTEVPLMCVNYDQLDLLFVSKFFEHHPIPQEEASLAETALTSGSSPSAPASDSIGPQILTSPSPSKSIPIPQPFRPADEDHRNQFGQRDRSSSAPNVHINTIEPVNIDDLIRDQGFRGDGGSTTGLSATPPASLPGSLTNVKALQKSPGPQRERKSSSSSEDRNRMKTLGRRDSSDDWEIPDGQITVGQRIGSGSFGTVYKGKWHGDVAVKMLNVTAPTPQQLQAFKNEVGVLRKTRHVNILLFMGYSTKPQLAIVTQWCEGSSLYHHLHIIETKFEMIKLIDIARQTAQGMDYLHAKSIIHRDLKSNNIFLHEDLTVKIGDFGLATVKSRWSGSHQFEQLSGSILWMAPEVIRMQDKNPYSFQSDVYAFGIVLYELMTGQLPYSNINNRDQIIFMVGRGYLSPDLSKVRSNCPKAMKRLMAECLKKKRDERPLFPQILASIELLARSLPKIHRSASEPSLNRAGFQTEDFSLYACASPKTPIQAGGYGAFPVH

On to `O=S(=O)(Nc1ccc(F)c(Nc2ncnc3sc(-n4cnc5c(N6CCC(O)(C(F)(F)F)CC6)cccc54)nc23)c1F)c1cccc(Cl)c1Cl` [Example 137], for which the pIC50 is below 8.00 in experiment [1] (Table 3), above 6.30 in experiment [2] (Table 3) and below 7.30 in experiment [3] (Table 3). In addition, the “HCT116 pERK (Ymin %)” value in experiment [2] (Table 3) is recorded as −14%.
Take `CC1(CO)CCN(c2cccc3c2ncn3-c2nc3c(Nc4c(F)ccc(NS(=O)(=O)c5cccc(Cl)c5Cl)c4F)ncnc3s2)CC1` [Example 138]: the pIC50 in experiment [1] (Table 3) is below 8.00; in experiment [2] (Table 3), above 6.30; in experiment [3] (Table 3), below 7.30. Further, the “HCT116 pERK (Ymin %)” value in experiment [2] (Table 3) is −14%.
Consider `COC1CCN(c2cccc3c2ncn3-c2nc3c(Nc4c(F)ccc(NS(=O)(=O)c5cccc(Cl)c5Cl)c4F)ncnc3s2)CC1` [Example 139], for which the pIC50 in experiment [1] (Table 3) was 8.00 to 9.00; in experiment [2] (Table 3), above 6.30; in experiment [3] (Table 3), 7.30 to 8.00. The “HCT116 pERK (Ymin %)” value in experiment [2] (Table 3) is listed as −13%.
For the molecule `N#CC1CCN(c2cccc3c2ncn3-c2nc3c(Nc4c(F)ccc(NS(=O)(=O)c5cccc(Cl)c5Cl)c4F)ncnc3s2)CC1` [Example 140], the pIC50 in experiment [1] (Table 3) is 8.00 to 9.00; in experiment [2] (Table 3), above 6.30; in experiment [3] (Table 3), 7.30 to 8.00. The “HCT116 pERK (Ymin %)” value in experiment [2] (Table 3) is −10%.
In the case of `O=S(=O)(Nc1ccc(F)c(Nc2ncnc3sc(-n4cnc5c(N6CCOC(CO)C6)cccc54)nc23)c1F)c1cccc(Cl)c1Cl` (centres unmarked) [Example 141], the pIC50 was above 9.00 in experiment [1] (Table 3), above 6.30 in experiment [2] (Table 3) and above 8.00 in experiment [3] (Table 3). In experiment [2] (Table 3), the “HCT116 pERK (Ymin %)” value was 2%.
On to `O=S(=O)(Nc1ccc(F)c(Nc2ncnc3sc(-n4cnc5c(N6CCC(F)(CO)CC6)cccc54)nc23)c1F)c1cccc(Cl)c1Cl` [Example 142], for which the figures for the pIC50 in experiment [1] (Table 3), in experiment [2] (Table 3) and in experiment [3] (Table 3) were 8.00 to 9.00, above 6.30 and 7.30 to 8.00, respectively. The “HCT116 pERK (Ymin %)” value in experiment [2] (Table 3) turned out to be 0%.
Take `O=S(=O)(Nc1ccc(F)c(Nc2ncnc3sc(-n4cnc5c(C6(CO)CC6)cccc54)nc23)c1F)c1cccc(Cl)c1Cl` [Example 143]: the pIC50 in experiment [1] (Table 3) was 8.00 to 9.00; in experiment [2] (Table 3) it was above 6.30; in experiment [3] (Table 3), above 8.00. The “HCT116 pERK (Ymin %)” value in experiment [2] (Table 3) is −8%.
For `O=S(=O)(Nc1ccc(F)c(Nc2ncnc3sc(-n4cnc5c(N6CCC(O)CC6)cccc54)nc23)c1F)c1cccc(Cl)c1Cl` [Example 144], in that order: 8.00 to 9.00, above 6.30, above 8.00 and −4%.
Taken in the same sequence, the figures for `CC1(C#N)CCN(c2cccc3c2ncn3-c2nc3c(Nc4c(F)ccc(NS(=O)(=O)c5cccc(Cl)c5Cl)c4F)ncnc3s2)CC1` [Example 145] were 8.00 to 9.00, above 6.30, below 7.30 and −13%.
Regarding `O=S(=O)(Nc1ccc(F)c(Nc2ncnc3sc(-n4cnc5c(N6CCC7(CCOC7)CC6)cccc54)nc23)c1F)c1cccc(Cl)c1Cl` [Example 146], the pIC50 in experiment [1] (Table 3) is below 8.00; in experiment [2] (Table 3), above 6.30; in experiment [3] (Table 3), below 7.30. In addition, the “HCT116 pERK (Ymin %)” value in experiment [2] (Table 3) is on record as −12%.
Taken in the same sequence, the figures for `O=S(=O)(Nc1ccc(F)c(Nc2ncnc3sc(-n4cnc5c(N6CCC[C@H](O)C6)cccc54)nc23)c1F)c1cccc(Cl)c1Cl` [Example 147] were above 9.00, above 6.30, 7.30 to 8.00 and −4%.
Taken in the same sequence, the figures for `O=S(=O)(Nc1ccc(F)c(Nc2ncnc3sc(-n4cnc5c(N6CCC[C@@H](O)C6)cccc54)nc23)c1F)c1cccc(Cl)c1Cl` [Example 148] were 8.00 to 9.00, above 6.30, 7.30 to 8.00 and −2%.
For the molecule `CCC1(O)CCN(c2cccc3c2ncn3-c2nc3c(Nc4c(F)ccc(NS(=O)(=O)c5cccc(Cl)c5Cl)c4F)ncnc3s2)CC1` [Example 149], the results for the pIC50 in experiment [1] (Table 3), in experiment [2] (Table 3) and in experiment [3] (Table 3) were 8.00 to 9.00, above 6.30 and 7.30 to 8.00, respectively. Also, the “HCT116 pERK (Ymin %)” value in experiment [2] (Table 3) is given as 16%.
Regarding `CC1(O)CCCN(c2cccc3c2ncn3-c2nc3c(Nc4c(F)ccc(NS(=O)(=O)c5cccc(Cl)c5Cl)c4F)ncnc3s2)CC1` (centres unmarked) [Example 150], the pIC50 is below 8.00 in experiment [1] (Table 3), 5.00 to 6.00 in experiment [2] (Table 3) and 7.30 to 8.00 in experiment [3] (Table 3). Besides, in experiment [2] (Table 3), the “HCT116 pERK (Ymin %)” value is −5%.
Regarding `O=C1CCCC12CCN(c1cccc3c1ncn3-c1nc3c(Nc4c(F)ccc(NS(=O)(=O)c5cccc(Cl)c5Cl)c4F)ncnc3s1)CC2` [Example 151], the results for the pIC50 in experiment [1] (Table 3), in experiment [2] (Table 3) and in experiment [3] (Table 3) were 8.00 to 9.00, above 6.30 and 7.30 to 8.00, respectively. Moreover, in experiment [2] (Table 3), the “HCT116 pERK (Ymin %)” value is −2%.
Regarding `O=S(=O)(Nc1ccc(F)c(Nc2ncnc3sc(-n4cnc5c(N6CCN(CCO)CC6)cccc54)nc23)c1F)c1cccc(Cl)c1Cl` [Example 152], the pIC50 in experiment [1] (Table 3) was above 9.00; in experiment [2] (Table 3), above 6.30; in experiment [3] (Table 3), above 8.00. In experiment [2] (Table 3), the “HCT116 pERK (Ymin %)” value is reported as 0%.
For `CS(=O)(=O)C1CCN(c2cccc3c2ncn3-c2nc3c(Nc4c(F)ccc(NS(=O)(=O)c5cccc(Cl)c5Cl)c4F)ncnc3s2)CC1` [Example 153], in that order: 8.00 to 9.00, above 6.30, above 8.00 and −5%.
Regarding `Cc1c(F)cccc1S(=O)(=O)Nc1ccc(F)c(Nc2ncnc3sc(-c4cncs4)nc23)c1F` [Example 154, N-[2,4-difluoro-3-[(2-thiazol-5-ylthiazolo[5,4-d]pyrimidin-7-yl)amino]phenyl]-3-fluoro-2-methyl-benzenesulfonamide], the pIC50 in experiment [1] (Table 3) was below 8.00; in experiment [2] (Homo sapiens, HCT-116, Table 3), 5.00 to 6.00; in experiment [3] (Table 3), below 7.30.
As to `CS(=O)(=O)N1CCN(c2cccc3c2ncn3-c2nc3c(Nc4c(F)ccc(NS(=O)(=O)c5cccc(Cl)c5Cl)c4F)ncnc3s2)CC1` [Example 155], the pIC50 in experiment [1] (Table 3) is 8.00 to 9.00; in experiment [2] (Table 3), above 6.30; in experiment [3] (Table 3), 7.30 to 8.00. In experiment [2] (Table 3), the “HCT116 pERK (Ymin %)” value is listed as −12%.
Consider `O=S(=O)(Nc1ccc(F)c(Nc2ncnc3sc(-n4cnc5c(N6CCNCC6)cccc54)nc23)c1F)c1cccc(Cl)c1Cl` [Example 156, 2,3-dichloro-N-[2,4-difluoro-3-[[2-(4-piperazin-1-ylbenzimidazol-1-yl)thiazolo[5,4-d]pyrimidin-7-yl]amino]phenyl]benzenesulfonamide], for which the pIC50 in experiment [1] (Table 3) was above 9.00; in experiment [2] (Homo sapiens, HCT-116, Table 3), above 6.30; in experiment [3] (Table 3), above 8.00.
With `CC1(N)CCN(c2cccc3c2ncn3-c2nc3c(Nc4c(F)ccc(NS(=O)(=O)c5cccc(Cl)c5Cl)c4F)ncnc3s2)CC1` [Example 157], the pIC50 is above 9.00 in experiment [1] (Table 3), above 6.30 in experiment [2] (Table 3) and above 8.00 in experiment [3] (Table 3). In addition, in experiment [2] (Table 3), the “HCT116 pERK (Ymin %)” value is given as −14%.
For `O=S1(=O)CCN(c2cccc3c2ncn3-c2nc3c(Nc4c(F)ccc(NS(=O)(=O)c5cccc(Cl)c5Cl)c4F)ncnc3s2)CC1` [Example 158], the pIC50 in experiment [1] (Table 3) is above 9.00; in experiment [2] (Table 3), above 6.30; in experiment [3] (Table 3), above 8.00. Moreover, the “HCT116 pERK (Ymin %)” value in experiment [2] (Table 3) was 4%.
Take `O=S(=O)(Nc1cc(F)c(F)c(Nc2ncnc3sc(-n4cnc5ccccc54)nc23)c1F)c1cccc(Cl)c1Cl` [Example 159, N-[3-[[2-(benzimidazol-1-yl)thiazolo[5,4-d]pyrimidin-7-yl]amino]-2,4,5-trifluoro-phenyl]-2,3-dichloro-benzenesulfonamide]: the negative-log IC50 (pIC50) in experiment [1] (Table 4) is 8.00 to 9.00; in experiment [2] (Homo sapiens, HCT-116, Table 4), above 6.30; in experiment [3] (Table 4), above 8.00.

By pIC50 is commonly meant the negative decadic logarithm of the IC50, by convention in mol/L.
